# Data reported in patent publication US11327083B2, “Treatment and differential diagnosis of Cushing's disease and ectopic Cushing's syndrome” (Corcept Therapeutics, Inc., priority 2016, dated 2022).
# Key:
# [1] = system: patients having Cushing's Disease; experiment: Mean plasma cortisol to ACTH (C:A) ratio during mifepristone treatment, patients having Cushing's Disease; format: in vivo, human
# Protocol: (§1) Two groups of patients, which have been previously diagnosed as having Cushing's Disease, Ectopic Cushing's Syndrome using other methods, were enrolled in the study. The investigators were blind to the patients' diagnoses. Blood samples were obtained from each patient within 6 weeks prior to the enrollment in the study (“Day 1” samples). The patients were treated with mifepristone at a starting dose 300 mg daily, increased up to 1200 mg or 20 mg/kg over a period of 10 weeks. The mifepristone treatment continued for a total period of 24 weeks. Blood samples were taken during the course of the treatment, i.e., at the end of 14 days, and 6, 10, 16 and 24 weeks from the initial dose of mifepristone was given. All samples were taken at between 8-10 am on the day of the study. The ACTH levels and the cortisol levels of the plasma produced from the blood samples collected above were assayed using two-site immunometric assays (Mayo Clinic, Test ID ACTH) following the manufacturer's instructions.
# [2] = system: patients having Ectopic Cushing's Syndrome; experiment: Mean plasma cortisol to ACTH (C:A) ratio during mifepristone treatment, patients having Ectopic Cushing's Syndrome; format: in vivo, human
# Protocol: as §1
# [3] = CD patients (n = 38), plasma, 8-10 am, mifepristone 300 mg daily increased up to 1200 mg or 20 mg/kg, Day 1 baseline mean 3.018
# [4] = Ectopic patients (n = 3), plasma, 8-10 am, mifepristone 300 mg daily increased up to 1200 mg or 20 mg/kg, Day 1 baseline mean 18.552
structure (smiles),measurement,setting,value
"CC#C[C@]1(O)CC[C@H]2[C@@H]3CCC4=CC(=O)CCC4=C3[C@@H](c3ccc(N(C)C)cc3)C[C@@]21C [mifepristone, 17-β-hydrox-11-β-(4-dimethyl-aminophenyl)17-α-(1-propynyl)estra-4,9-dien-3-one]","mean ratio of cortisol to ACTH, Week 16","[1]; CD patients (n = 32), plasma, 8-10 am, mifepristone 300 mg daily increased up to 1200 mg or 20 mg/kg, Day 1 baseline mean 3.018",5.788
same,"mean ratio of cortisol to ACTH, Week 10","[1]; CD patients (n = 33), plasma, 8-10 am, mifepristone 300 mg daily increased up to 1200 mg or 20 mg/kg, Day 1 baseline mean 3.018",6.852
same,"mean ratio of cortisol to ACTH, Week 6",[1]; [3],3.396
same,"mean ratio of cortisol to ACTH, Week 24/ET",[1]; [3],4.999
same,mean GRA-exposed C:A ratio relative to the mean baseline C:A ratio (peak),"[1]; Cushing's Disease patients, peak at the end of 10 weeks of mifepristone treatment",more than 2 fold
same,mean GRA-exposed C:A ratio as % of the baseline ratio,"[2]; Ectopic Cushing's Syndrome patients, end of 24 weeks treatment",11.6%
same,mean GRA-exposed C:A ratio as % of the mean baseline ratio,"[2]; Ectopic Cushing's Syndrome patients, end of the six weeks' treatment",less than 50%
same,"mean ratio of cortisol to ACTH, Week 6",[2]; [4],9.241
same,"mean ratio of cortisol to ACTH, Week 10",[2]; [4],6.722
same,"mean ratio of cortisol to ACTH, Week 16",[2]; [4],0.600
same,"mean ratio of cortisol to ACTH, Week 24/ET",[2]; [4],2.154
